US9617285B2, “1-hydroxy-benzooxaboroles as antiparasitic agents” (priority 2013, dated 2017)

Key:
Format in all cases: in vivo
Uncinaria stenocephala = experiment: Experimental hookworm infections in dogs, U. stenocephala; details: oral, point dose of no greater than 25 mg/kg bodyweight, by Day 5
Description: (§1) Activity of Example 1 Compound Against Experimental Hookworm Infections in Dogs
(§2) The antihelminthic activity of the Example 1 compound, when administered orally at a point dose of no greater than 25 mg/kg bodyweight, is evaluated against experimental infections of the hookworms Ancylostoma caninum and Uncinaria stenocephala in dogs. Four (4) beagle dogs in good health are inoculated with 3rd-stage infective larvae of each hookworm species, per W.A.A.V.P. Guidelines (Jacobs, D. E., A. Arakawa, C. H. Courtney, et al., 1994. Vet. Parasitol. 52: 179-202) so as to provide sufficient time for development of full patency. Fecal egg counts are conducted twice before treatment (Day-2 and Day-1). On Day 0, test article (technical active dissolved in 55-65% polyethylene glycol-300, 25-35% propylene glycol and 10-20% water) is administered to all four dogs via esophageal feeding tube. Fecal egg counts are conducted post-treatment on Days 3, 5 and 7. The average of two pre-treatment fecal egg counts is used for comparison to post-treatment egg counts for the purposes of calculating efficacy (geometric mean % reduction in fecal egg count) against each hookworm species.

[1] = Tolerability of treatment in hookworm-infected dogs; details: oral, point dose of no greater than 25 mg/kg bodyweight
Description: as §2

Ancylostoma caninum = experiment: Experimental hookworm infections in dogs, A. caninum; details: oral, point dose of no greater than 25 mg/kg bodyweight, by Day 3
Description: as §1, §2

C[C@](C#N)(COc1ccc2c(c1Cl)B(O)OC2)NC(=O)c1ccc(OC(F)(F)F)cc1 (single isomer, unassigned) [Example 1]
reduction in U. stenocephala fecal egg count (Uncinaria stenocephala): > 50%
tolerability of treatment [1]: well tolerated
reduction in A. caninum fecal egg counts (Ancylostoma caninum): > 50%
